Reference: patent US20230318003A1, “REDOX FLOW BATTERY AND AQUEOUS-BASED SOLUTION” (RIVUS AB, priority 2020, published 2023)
Blank lines part the entries; values can stand above or below the compound they belong to.

Experiments:
[1] = Solubility testing, saturated solutions in milli-Q water at ambient temperature; settings: thermodynamic from solid
Experimental: The solutions were centrifuged at 12,500 rpm for 30 minutes. 100 μl of the supernatant were pipetted in triplicates from each of the solution into separate empty vials of known weights. The content of these vails were left to dry in a vacuum oven overnight. The final weights of the vials were determined and the amount of each of the compounds calculated from the weight difference. Solubility in mmol/L for each compound was finally determined.

[2] = Cyclic voltammetry of the compounds of Examples 3, 4a and 4b; assay type: physicochemical; settings: for Redox potential E^0′ vs. Ag/AgCl: single redox process; for Decomposition during cyclic voltammetry: both acidic and neutral electrolytes; for Redox potential vs. Ag/AgCl, first redox process / Redox potential vs. Ag/AgCl, second redox process: neutral electrolyte
Experimental: All CV measurements were carried out in a custom built 10 ml three-electrode electrochemical cell. The lower part of the cell holds the electrolyte of interest. In the upper part are ports to hold the working electrode, reference electrode and auxiliary electrode as well as inlet and outlet for N2 gas. […] Cyclic voltammograms were recorded at scan rates of 10 mVs^−1, 20 mVs^−1, 50 mVs^−1, 100 mVs^−1 and 250 mVs^−1 at room temperature. Prior to measurements, the electrolyte was de-aerated by continuously purging with N2 gas for 10-15 minutes and maintaining a N2 flow-blanket throughout the experiment to minimize any environmental contamination. Also, 80% of the ohmic drop was compensated for during the experiment using a positive feedback-loop.

[3] = Diffusion NMR of NDI; assay type: physicochemical
From the text: Addition of three protons to each NDI molecule at pH values as high as 3 is unlikely, since the third proton would be at a weakly basic carbonyl. This is further supported by the lack of buffering at lower pHs in the titration curve in FIG. 1.

[4] = Water solubility of NDI; assay type: physicochemical
[5] = Titration of tertiary NDI in water with 1 M sodium hydroxide; assay type: physicochemical; settings: 50 ml 15.6 mM tertiary NDI in water
From the text: The quaternization is only necessary if the molecule is to be examined at higher pH values, since the tertiary amine sidechains are protonated for pH values less than about 8 (pKa≈8.1) as shown by the titration curve in FIG. 1. In FIG. 1 it can be seen that the molecule deprotonates above pH 8 and precipitates out of solution. For actual flow battery applications, i.e. redox flow battery according to the present invention, the last reaction step is thus possible to omit.

[6] = Bulk electrolysis cycling of NDI; assay type: physicochemical; settings: 25 mM in pH 6.4 phosphate buffer, twelve cycles at 15 mA, roughly a week
Experimental: A solution of 25 mM NDI in pH 6.4 sodium phosphate buffer was cycled in a bulk electrolysis cell, where all of the material is reduced, as opposed to CV and RDE, where only a small fraction of the material is probed. A galvanostatic BE setting was used, where a constant current of 40 mA was applied. The electrolysis was intermittently paused, allowing for CVs to be collected to be able to quantify the amount of NDI that has been reduced. The peak heights from the CVs were correlated to the passed current, and it was seen that the complete capacity of NDI could be accessed using bulk electrolysis. […] For NDI, the reduction of the molecule lowers the monomer concentration in the solution, and the dimerization equilibrium is shifted in the direction of dimer separation.
After the initial sweep, continuous cycling at a current of 15 mA was performed for twelve cycles. A CV was collected after the cycling had finished, roughly a week after starting. […] Apart from that, the NDI molecule is synthesized via a one-step reaction, at room temperature in water with an almost 100% yield. It is water soluble up to 0.7 M, and has a lower reduction potential than any of the other examined molecules, resulting in a high battery voltage in the application.

[7] = Cyclic voltammetry of NDI at different pH values; assay type: physicochemical; settings: pH below 3
From the text: The electrochemistry of NDI was examined by CV at a range of different pH values, to gain understanding of the electron transfer reaction mechanism. FIG. 2a and FIG. 2b show cyclic voltammograms (CVs) for NDI at pH 7 and 0, respectively. […] The broadness of the first reduction at pH 7, is assumed to be due to the possibility for the first electron to add at different positions of NDI.
A plot of the reduction potentials for NDI at different pHs is seen in FIG. 3. […] The second reduction, the triangles in the figure, has a slope of 91 mV/pH at pH below 3, indicating a one electron-1.5 proton relationship, according to the Nernst equation.

[8] = acidic electrolyte (1 M sulfuric acid)
[9] = 0.5M sodium phosphate buffer of pH 7, scan rate 10 mVs^−1
[10] = 0.5M sodium phosphate buffer of pH 7, scan rate 20 mVs^−1
[11] = 0.5M sodium phosphate buffer of pH 7, scan rate 50 mVs^−1
[12] = 0.5M sodium phosphate buffer of pH 7, scan rate 100 mVs^−1
[13] = 0.5M sodium phosphate buffer of pH 7, scan rate 250 mVs^−1
[14] = 1M sulfuric acid, scan rate 10 mVs^−1
[15] = 1M sulfuric acid, scan rate 20 mVs^−1
[16] = 1M sulfuric acid, scan rate 50 mVs^−1
[17] = 1M sulfuric acid, scan rate 100 mVs^−1
[18] = 1M sulfuric acid, scan rate 250 mVs^−1

- solubility ([1]; Average, average of tests 1-3): 678 mM
- solubility ([1]; Test 1, milli-Q water): 653 mM
- solubility ([1]; Test 2, milli-Q water): 689 mM
- solubility ([1]; Test 3, milli-Q water): 691 mM
- Redox potential E^0′ vs. Ag/AgCl [2, 8]: ~−0.32 V
- Decomposition during cyclic voltammetry [2]: no evidence of decomposition
- Redox potential vs. Ag/AgCl, first redox process ([2]; first redox process): ~−0.30 V
- Redox potential vs. Ag/AgCl, second redox process ([2]; second redox process): ~−0.63 V
Compound: C[N+](C)(C)CCCN1C(=O)c2ccc3c4c(ccc(c24)C1=O)C(=O)N(CCC[N+](C)(C)C)C3=O [Compound 2, Benzo[Imn][3,8]phenanthroline-2,7-dipropanaminium, 1,3,6,8-tetrahydro-N,N,N,N′,N′,N′-hexamethyl-1,3,6,8-tetraoxo-, dichloride]

- solubility ([1]; Average, average of tests 1-3): 149 mM
- solubility ([1]; Test 1, milli-Q water): 142 mM
- solubility ([1]; Test 2, milli-Q water): 151 mM
- solubility ([1]; Test 3, milli-Q water): 154 mM
- Potential vs. Ag/AgCl, first pair of peaks ([2]; acidic electrolyte, first redox process): ~−0.13 V
- Potential vs. Ag/AgCl, second pair of peaks ([2]; acidic electrolyte, second redox process): ~−0.38 V
- Decomposition during cyclic voltammetry [2]: no evidence of decomposition
- Redox potential vs. Ag/AgCl, first redox process ([2]; first redox process): −0.05 V
- Redox potential vs. Ag/AgCl, second redox process ([2]; second redox process): −0.65 V
Compound: C[N+](C)(C)CCCN1C(=O)c2cc(Br)c3c4c(cc(Br)c(c24)C1=O)C(=O)N(CCC[N+](C)(C)C)C3=O [Compound 3, 3,3′-(4,9-dibromo-1,3,6,8-tetraoxo-1,3,6,8-tetrahydrobenzo[Imn][3,8]phenanthroline-2,7-diyl)bis(N,N,N-trimethylpropan-1-aminium) chloride]

- E^0′ vs. Ag/AgCl [2, 9]: −0.43 V
- peak current ratio ipa/ipc [2, 9]: 0.82 ± 0.04
- ΔEp [2, 9]: 49.21 ± 8.49 mV
- E^0′ vs. Ag/AgCl [2, 10]: −0.43 V
- peak current ratio ipa/ipc [2, 10]: 0.80 ± 0.05
- ΔEp [2, 10]: 51.87 ± 9.16 mV
- E^0′ vs. Ag/AgCl [2, 11]: −0.43 V
- peak current ratio ipa/ipc [2, 11]: 0.74 ± 0.06
- ΔEp [2, 11]: 61.48 ±12.09 mV
- E^0′ vs. Ag/AgCl [2, 12]: −0.43 V
- peak current ratio ipa/ipc [2, 12]: 0.69 ± 0.07
- ΔEp [2, 12]: 68.59 ± 14.05 mV
- E^0′ vs. Ag/AgCl [2, 13]: −0.43 V
- peak current ratio ipa/ipc [2, 13]: 0.63 ± 0.07
- ΔEp [2, 13]: 86.49 ± 20.99 mV
- E^0′ vs. Ag/AgCl [2, 14]: −0.13 V
- peak current ratio ipa/ipc [2, 14]: 0.91 ± 0.05
- ΔEp [2, 14]: 63.67 ± 10.03 mV
- E^0′ vs. Ag/AgCl [2, 15]: −0.13 V
- peak current ratio ipa/ipc [2, 15]: 0.92 ± 0.01
- ΔEp [2, 15]: 63.31 ± 10.97 mV
- E^0′ vs. Ag/AgCl [2, 16]: −0.13 V
- peak current ratio ipa/ipc [2, 16]: 0.89 ± 0.02
- ΔEp [2, 16]: 64.97 ± 10.46 mV
- E^0′ vs. Ag/AgCl [2, 17]: −0.13 V
- peak current ratio ipa/ipc [2, 17]: 0.87 ± 0.00
- ΔEp [2, 17]: 66.31 ± 9.29 mV
- E^0′ vs. Ag/AgCl [2, 18]: −0.13 V
- peak current ratio ipa/ipc [2, 18]: 0.82 ± 0.01
- ΔEp [2, 18]: 71.25 ± 11.85 mV
- Redox potential E^0′ vs. Ag/AgCl [2, 8]: −0.13 V
- Redox potential E^0′ vs. Ag/AgCl ([2]; neutral electrolyte (0.5 M sodium phosphate buffer pH 7)): −0.43 V
Compound: 4,9-dibromo-2,7-bis(3-(dimethylamino)propyl)benzo[Imn][3,8]phenanthroline-1,3,6,8(2H,7H)-tetraone [Compound 1]

- Diffusion coefficient ([3]; acid solution): 2.57 ×10^−6 cm^2 s^−1
- Diffusion coefficient ([3]; neutral solution): 2.34 ×10^−6 cm^2 s^−1
- Water solubility [4]: up to 0.7 M
- pKa of tertiary amine sidechains [5]: ≈ 8.1
- Material degradation after cycling (CV before vs after) [6]: no or little material degradation
- Slope of second reduction potential versus pH [7]: 91 mV/pH
Compound: CN(C)CCCN1C(=O)c2ccc3c4c(ccc(c24)C1=O)C(=O)N(CCCN(C)C)C3=O [NDI, 2,7-bis(3-(dimethylamino)propyl)benzo[Imn][3,8]phenanthroline-1,3,6,8(2H,7H)-tetraone]
